Laboratory results published in the NIST ThermoML archive (doi:10.1021/je060238o).

Assays:
[1] = xn = mol fraction of the nth substance listed; details: 298.15 K, 101 kPa, Liquid
[2] = refractive index (Na D-line) (dimensionless); xn = mol fraction of the nth substance listed; details: 298.15 K, 101 kPa, Liquid, Standard Abbe refractometry
[3] = Liquid; for mass density: 298.15 K, 101.33 kPa; for Normal boiling temperature: Ebulliometric method (Recirculating still)
[4] = refractive index (Na D-line) (dimensionless); details: 298.15 K; 101.33 kPa; Liquid; Standard Abbe refractometry

CC(C)CCO [3-methylbutan-1-ol] + CC(C)CO
Details	mass density, [1] [kg/m3]	refractive index, [2]
x2 = 0.051	805.95	1.40469
x2 = 0.099	805.61	1.40418
x2 = 0.15	805.25	1.40371
x2 = 0.199	804.88	1.40318
x2 = 0.254	804.48	1.4026
x2 = 0.3	804.15	1.40212
x2 = 0.35	803.77	1.40161
x2 = 0.4	803.39	1.40109
x2 = 0.445	803.05	1.4006
x2 = 0.5	802.62	1.39997
x2 = 0.549	802.23	1.3994
x2 = 0.6	801.83	1.39879
x2 = 0.65	801.42	1.39821
x2 = 0.7	800.64	1.39764
x2 = 0.751	800.19	1.39701
x2 = 0.799	799.74	1.39636
x2 = 0.849	799.27	1.39567
x2 = 0.899	798.8	1.395
x2 = 0.95	798.31	1.39435

CC(C)CCO [3-methylbutan-1-ol]
Details	Normal boiling temperature [°C]	mass density [kg/m3]	refractive index
[3]	131.12	806.78	–
[4]	–	–	1.40515

CCCCCO [pentan-1-ol]
Details	Normal boiling temperature [°C]	mass density [kg/m3]	refractive index
[3]	137.70	810.96	–
[4]	–	–	1.4077

CCC(C)CO (stereo unspecified) [2-methyl-1-butanol] + CC(C)CO
Details	mass density, [1] [kg/m3]	refractive index, [2]
x2 = 0.051	814.19	1.40802
x2 = 0.101	813.53	1.40742
x2 = 0.151	812.85	1.40674
x2 = 0.2	812.17	1.40606
x2 = 0.25	811.49	1.40538
x2 = 0.3	810.75	1.40466
x2 = 0.35	810.03	1.40397
x2 = 0.401	809.29	1.40328
x2 = 0.45	808.55	1.40252
x2 = 0.5	807.79	1.40178
x2 = 0.549	807.02	1.40107
x2 = 0.599	806.25	1.40029
x2 = 0.65	805.45	1.39946
x2 = 0.701	804.63	1.39866
x2 = 0.749	803.86	1.3979
x2 = 0.8	803	1.39706
x2 = 0.85	802.17	1.3962
x2 = 0.899	801.17	1.39533
x2 = 0.95	800.1	1.3945

CC(C)CO [2-methyl-1-propanol] + CCCCCO
Details	mass density, [1] [kg/m3]	refractive index, [2]
x1 = 0.05	810.3	1.4071
x1 = 0.1	809.7	1.4065
x1 = 0.15	809.09	1.40588
x1 = 0.2	808.51	1.40524
x1 = 0.249	807.94	1.4046
x1 = 0.299	807.34	1.40394
x1 = 0.35	806.75	1.40326
x1 = 0.4	806.13	1.40259
x1 = 0.45	805.53	1.40193
x1 = 0.499	804.9	1.40124
x1 = 0.549	804.29	1.40055
x1 = 0.6	803.64	1.39983
x1 = 0.65	803.01	1.3991
x1 = 0.699	802.41	1.39834
x1 = 0.75	801.73	1.39758
x1 = 0.8	801.07	1.39683
x1 = 0.85	800.39	1.39604
x1 = 0.9	799.67	1.39524
x1 = 0.95	798.84	1.39447

CC(C)CO [2-methyl-1-propanol]
Details	Normal boiling temperature [°C]	mass density [kg/m3]	refractive index
[3]	108	797.84	–
[4]	–	–	1.3937

CCC(C)CO (stereo unspecified) [2-methyl-1-butanol]
Details	Normal boiling temperature [°C]	mass density [kg/m3]	refractive index
[3]	128.78	814.87	–
[4]	–	–	1.40872
